# Data from patent US8623855B2, “Azetidinone compounds and medical use thereof” (Zhejiang Hisun Pharmaceutical Co., Ltd., priority 2009, dated 2014).
# Read-outs that look alike come from different tables or passages of the source.
# Assays:
# [1] = system: hypercholesterolemia golden hamster model; assay: In vivo pharmacodynamic screening in hypercholesterolemia model of golden hamster (plasma TC and LDL-C); conditions: for inhibition in vivo at 0.4 mg/kg / inhibition in vivo at 2 mg/kg / inhibition in vivo at 10 mg/kg: Table 2; for LDL-C after administration / TC after administration / LDL after administration: 1 week, plasma
# Protocol: 1. Establishment of Hypercholesterolemia Model of Golden Hamster:
# The animals were subjected to acclimation feeding for 1 week with free feeding and drinking under a lighting condition of 10 h/14 h. On Day 8, the animals were raised with high fat feed (consisting of 0.5% cholesterol, 20% palm oil, 79.5% basal feed) for 1 week. Then, each animal was anesthetized by ether. After weighing, 0.5 ml blood was obtained from orbital vein, anticoagulated with heparin and centrifuged at 5000 rpm for 10 min. The plasma was collected and the levels of plasma TC (total cholesterol) and LDL-C (low density lipoprotein cholesterol) were determined by automatic biochemical analyzer. Animals with plasma TC of 9-15 mmol/L were selected as model animals (refer to the following reference for the method of animal modeling: Burrier, R. E., Smith, A. A., Mcgregor, D. G, Hoos, L. M., Zilli, D. L., Davis, H. R. The effect of acyl CoA: cholesterol acyltransferase inhibition on the uptake, esterification and secretion of cholesterol by the hamster small intestine. J. Pharm. Exp. Ther., 1995, 272, 156-163).
# The animals were grouped according to TC and LDL-C levels and weight with 6 animals per group. Ezetimibe was used as positive control. The animals were intragastrically administered at a volume of 5 ml/kg for 1 week. Each animal was anesthetized by ether. After weighing, 0.5 ml blood was taken from orbital vein, anticoagulated with heparin, and centrifuged at 5000 rpm for 10 min. The plasma was collected and plasma TC (total cholesterol) and LDL-C (low density lipoprotein cholesterol) levels were determined by automatic biochemical analyzer to evaluate the efficacy of the compounds.
# [2] = system: normal guinea pig; assay: Effect on blood lipid level of normal guinea pigs; format: in vivo; conditions: for HDL after administration / LDL after administration / TC after administration / TG after administration: Table 13
# [3] = Mesocricetus auratus, po, 168 h, read-out: Reducing LDL-C %
# [4] = Mesocricetus auratus, po, 168 h, read-out: Reducing TC %
# [5] = Table 1, 0.4 mg/kg intragastric
smiles,measurement,setting,value
"O=C1[C@H](C/C=C(\CO)c2ccc(F)cc2)[C@@H](c2ccc(O)cc2)N1c1ccc(F)cc1 [I-1(Z), (3R,4S)-1-(4-fluorophenyl)-3-[(Z)-3-(4-fluorophenyl)-4-hydroxy-but-2-enyl]-4-(4-hydroxyphenyl)azetidin-2-one]",inhibition in vivo at 0.4 mg/kg,[1]; [3],32.7%
same,inhibition in vivo at 0.4 mg/kg,[1]; [4],33.7%
same,inhibition in vivo at 2 mg/kg,[1]; [3],72.4%
same,inhibition in vivo at 2 mg/kg,[1]; [4],49.7%
same,inhibition in vivo at 10 mg/kg,[1]; [3],83.1%
same,inhibition in vivo at 10 mg/kg,[1]; [4],55.9%
same,inhibition in vivo at 1 mg/kg,"[1]; Mesocricetus auratus, po, 168 h, Table 4, 1 mg/kg, read-out: Reducing TC %",57.5%
same,inhibition in vivo at 4 mg/kg,"[1]; Mesocricetus auratus, po, 168 h, Table 4, 4 mg/kg, read-out: Reducing TC %",67.9%
same,LDL-C after administration,[1]; [5],1.52 ± 0.31 mmol/L
same,TC after administration,[1]; [5],6.46 ± 0.58 mmol/L
same,LDL-C after administration,"[1]; Table 1, 2 mg/kg intragastric",0.71 ± 0.49 mmol/L
same,TC after administration,"[1]; Table 1, 2 mg/kg intragastric",4.9 ± 0.62 mmol/L
same,LDL-C after administration,"[1]; Table 1, 10 mg/kg intragastric",0.42 ± 0.2 mmol/L
same,TC after administration,"[1]; Table 1, 10 mg/kg intragastric",4.3 ± 0.85 mmol/L
same,LDL-C before administration,"[1]; Table 1, baseline of group dosed 0.4 mg/kg",2.26 ± 0.65 mmol/L
same,LDL-C before administration,"[1]; Table 1, baseline of group dosed 2 mg/kg",2.57 ± 0.47 mmol/L
same,LDL-C before administration,"[1]; Table 1, baseline of group dosed 10 mg/kg",2.48 ± 0.67 mmol/L
same,LDL after administration,"[1]; Table 3, 1 mg/kg intragastric",1.19 ± 0.16 mmol/L
same,TC after administration,"[1]; Table 3, 1 mg/kg intragastric",5.79 ± 0.99 mmol/L
same,LDL after administration,"[1]; Table 3, 4 mg/kg intragastric",0.99 ± 0.28 mmol/L
same,TC after administration,"[1]; Table 3, 4 mg/kg intragastric",4.37 ± 0.59 mmol/L
same,Reducing LDL %,"[1]; Table 4, 1 mg/kg",35.7%
same,Reducing LDL %,"[1]; Table 4, 4 mg/kg",46.2%
same,effect compared with positive control Ezetimibe at the same dose (in words),"[1]; golden hamster hypercholesterolemic model, same dose",the same as that of the positive control
same,reduction of plasma TC and LDL-C levels (in words),"[1]; golden hamster hypercholesterolemic model, significant statistical difference",can significantly reduce the plasma TC and LDL-C levels
same,effect of lowering cholesterol (screening result in words),"[1]; in vivo pharmacodynamic screening test, Ezetimibe as positive control",have the effect of lowering cholesterol
same,efficacy compared with the positive control (in words),[1]; positive control Ezetimibe,more similar to the positive control
same,HDL after administration,[2]; 0.1 mg/kg,0.47 mmol/L
same,LDL after administration,[2]; 0.1 mg/kg,1.73 mmol/L
same,TC after administration,[2]; 0.1 mg/kg,1.77 ± 0.43 mmol/L
same,TG after administration,[2]; 0.1 mg/kg,0.38 ± 0.05 mmol/L
same,HDL after administration,[2]; 0.5 mg/kg,0.4 mmol/L
same,LDL after administration,[2]; 0.5 mg/kg,1.75 mmol/L
same,TC after administration,[2]; 0.5 mg/kg,1.9 ± 0.2 mmol/L
same,TG after administration,[2]; 0.5 mg/kg,0.44 ± 0.06 mmol/L
same,HDL after administration,[2]; 2.5 mg/kg,0.47 mmol/L
same,LDL after administration,[2]; 2.5 mg/kg,0.86 mmol/L
same,TC after administration,[2]; 2.5 mg/kg,1.17 ± 0.25 mmol/L
same,TG after administration,[2]; 2.5 mg/kg,0.31 ± 0.12 mmol/L
same,reduction of plasma TC and LDL-C levels (in words),[2]; normal guinea pigs,can significantly reduce the plasma TC and LDL-C levels
same,effect compared with positive control Ezetimibe at the same dose (in words),"[2]; normal guinea pigs, same dose",the same as that of the positive control
